Test results taken from US8802674B2, “Aminopyrimidine derivatives as LRRK2 modulators” (Genentech, Inc., priority 2011, dated 2014).

These compounds were tested against LRRK2 (Homo sapiens (Human), UniProt Q5S007, G2019S) (assay: In Vitro LRRK2 LabChip Assay). Details: Table 4.
Assay type: biochemical
Procedure, shortened: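 Phosphorylated and unphosphorylated peptides were separated by capillary electrophoresis and quantified by fluorescence. Ki came from a tight-binding equation, given in μM.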

Chain of LRRK2 (Q5S007 970-2527 G2019S limits assumed): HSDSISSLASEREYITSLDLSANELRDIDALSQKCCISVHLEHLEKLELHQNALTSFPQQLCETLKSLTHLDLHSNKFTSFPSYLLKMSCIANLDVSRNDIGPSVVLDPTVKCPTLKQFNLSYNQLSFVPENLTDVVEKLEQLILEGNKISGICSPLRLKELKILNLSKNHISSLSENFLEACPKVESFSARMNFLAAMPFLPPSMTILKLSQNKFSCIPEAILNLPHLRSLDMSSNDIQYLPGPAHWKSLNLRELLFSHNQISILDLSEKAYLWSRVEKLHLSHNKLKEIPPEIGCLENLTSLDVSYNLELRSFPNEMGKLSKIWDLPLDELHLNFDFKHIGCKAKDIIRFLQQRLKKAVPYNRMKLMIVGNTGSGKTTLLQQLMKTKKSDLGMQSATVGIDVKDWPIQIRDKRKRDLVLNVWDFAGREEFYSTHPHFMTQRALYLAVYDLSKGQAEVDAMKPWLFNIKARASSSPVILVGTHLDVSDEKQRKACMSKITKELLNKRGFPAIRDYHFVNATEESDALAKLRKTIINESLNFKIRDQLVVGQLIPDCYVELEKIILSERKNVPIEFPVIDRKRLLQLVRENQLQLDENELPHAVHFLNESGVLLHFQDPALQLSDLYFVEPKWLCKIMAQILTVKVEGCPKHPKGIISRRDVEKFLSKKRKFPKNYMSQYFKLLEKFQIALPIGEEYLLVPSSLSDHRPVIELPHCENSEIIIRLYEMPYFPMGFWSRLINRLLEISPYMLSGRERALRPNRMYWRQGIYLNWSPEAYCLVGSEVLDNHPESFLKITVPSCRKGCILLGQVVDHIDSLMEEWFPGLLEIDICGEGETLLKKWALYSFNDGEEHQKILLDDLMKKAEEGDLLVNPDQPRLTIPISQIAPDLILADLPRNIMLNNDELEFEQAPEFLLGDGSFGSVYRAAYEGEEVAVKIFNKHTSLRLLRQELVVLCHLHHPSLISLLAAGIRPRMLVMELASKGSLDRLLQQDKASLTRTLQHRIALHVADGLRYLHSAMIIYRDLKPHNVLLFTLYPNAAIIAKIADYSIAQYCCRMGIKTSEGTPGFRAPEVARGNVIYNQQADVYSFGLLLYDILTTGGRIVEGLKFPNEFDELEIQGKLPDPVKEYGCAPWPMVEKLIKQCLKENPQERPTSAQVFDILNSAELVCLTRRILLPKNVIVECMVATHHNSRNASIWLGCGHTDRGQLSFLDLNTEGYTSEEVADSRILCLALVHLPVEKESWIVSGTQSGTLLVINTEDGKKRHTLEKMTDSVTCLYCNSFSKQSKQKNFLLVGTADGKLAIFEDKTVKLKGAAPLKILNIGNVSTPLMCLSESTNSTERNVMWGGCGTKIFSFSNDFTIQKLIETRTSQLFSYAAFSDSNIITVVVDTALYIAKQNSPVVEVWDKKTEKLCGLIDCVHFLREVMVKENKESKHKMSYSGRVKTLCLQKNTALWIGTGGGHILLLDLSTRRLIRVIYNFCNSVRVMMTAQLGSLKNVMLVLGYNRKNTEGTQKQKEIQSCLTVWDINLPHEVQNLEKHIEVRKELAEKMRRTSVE

`CNc1nc(Nc2cc(F)c(C(=O)N(C)CC(C)(C)O)cc2OC)ncc1C(F)(F)F` [Example 248, 2-fluoro-N-(2-hydroxy-2-methylpropyl)-5-methoxy-N-methyl-4-(4-(methylamino)-5-(trifluoromethyl)pyrimidin-2-ylamino)benzamide] and `CNc1nc(Nc2cc(F)c(C(=O)N3C[C@@H](C)O[C@@H](C)C3)cc2OC)ncc1C(F)(F)F` [Example 249, ((2S,6R)-2,6-dimethylmorpholino) (2-fluoro-5-methoxy-4-(4-(methylamino)-5-(trifluoromethyl)pyrimidin-2-ylamino)phenyl) methanone] are within 1.5-fold of each other in Ki: 9.2 nM for the first, 8 nM for the second.

Compared with `CCNc1nc(Nc2ccc(C(=O)N3CCOCC3)cc2OC(C)C)ncc1C(F)(F)F` [Example 252, (4-(4-(ethylamino)-5-(trifluoromethyl)pyrimidin-2-ylamino)-3-isopropoxyphenyl) (morpholino) methanone], `COc1cc(C(=O)N2CCOCC2)ccc1Nc1ncc(Cl)c(N2CCCC2)n1` [Example 255, (4-(5-chloro-4-(pyrrolidin-1-yl)pyrimidin-2-ylamino)-3-methoxyphenyl) (morpholino) methanone] is 4-fold higher in Ki: 4.5 nM for the first, 17.9 nM for the second. The first binds more tightly here.

Work on `COc1cc(C(=O)N2CCOCC2)ccc1Nc1ncc(Cl)c(N2CCCCC2)n1` [Example 254, (4-(5-chloro-4-(piperidin-1-yl)pyrimidin-2-ylamino)-3-methoxyphenyl) (morpholino) methanone] yielded a Ki of 12.1 nM.

Same assay, conditions: Table 5

`CCNc1nc(Nc2cc(F)c(C(=O)N3CCOCC3)cc2OC)ncc1C(F)(F)F` [Example 256, [4-(4-Ethylamino-5-trifluoromethyl-pyrimidin-2-ylamino)-2-fluoro-5-methoxy-phenyl]-morpholin-4-yl-methanone] and `CCNc1nc(Nc2ccc(C(=O)N3CCOCC3)cc2OC)ncc1C(F)(F)F` [Example 257] are the same in Ki: 2 nM for the first, 2 nM for the second.

Compared with `CCNc1nc(Nc2cc(OC)c(C(=O)N3CCOCC3)cc2Cl)ncc1Cl` [Example 258, [5-Chloro-4-(5-chloro-4-ethylamino-pyrimidin-2-ylamino)-2-methoxy-phenyl]-morpholin-4-yl-methanone], `COc1cc(Nc2ncc(Cl)c(OC)n2)c(Cl)cc1C(=O)N1CCOCC1` [Example 260, [5-Chloro-4-(5-chloro-4-methoxy-pyrimidin-2-ylamino)-2-methoxy-phenyl]-morpholin-4-yl-methanone] is 9.4-fold higher in Ki: 5 nM for the first, 47 nM for the second. The first binds more tightly here.

`COc1nc(Nc2ccc(C(=O)N3CCOCC3)cc2Cl)ncc1Cl` [Example 261, [3-Chloro-4-(5-chloro-4-methoxy-pyrimidin-2-ylamino)-phenyl]-morpholin-4-yl-methanone] and `COc1cc(C(=O)N2CCOCC2)ccc1Nc1ncc(Cl)c(OC2CCOCC2)n1` [Example 264, {4-[5-Chloro-4-(tetrahydro-pyran-4-yloxy)-pyrimidin-2-ylamino]-3-methoxy-phenyl}-morpholin-4-yl-methanone] are within 1.5-fold of each other in Ki: 47 nM for the first, 33 nM for the second.

`COc1cc(C(=O)N2CCOCC2)c(Cl)cc1Nc1ncc(C(F)(F)F)c(OC)n1` [Example 262, [2-Chloro-5-methoxy-4-(4-methoxy-5-trifluoromethyl-pyrimidin-2-ylamino)-phenyl]-morpholin-4-yl-methanone] and `COc1cc(C(=O)N2CCOCC2)ccc1Nc1ncc(C(F)(F)F)c(OC)n1` [Example 263, [3-Methoxy-4-(4-methoxy-5-trifluoromethyl-pyrimidin-2-ylamino)-phenyl]-morpholin-4-yl-methanone] are within 1.5-fold of each other in Ki: 24 nM for the first, 20 nM for the second.

Same assay, conditions: Table 6

Going from `CNc1nc(Nc2cc(OC)c(C(=O)NC3(C#N)CC3)cc2Cl)ncc1C(F)(F)F` [Example 265, 5-Chloro-N-(1-cyano-cyclopropyl)-2-methoxy-4-(4-methylamino-5-trifluoromethyl-pyrimidin-2-ylamino)-benzamide] to `CNc1nc(Nc2cc(OC)c(C(=O)N3CC(C)OC(C)C3)cc2Cl)ncc1C(F)(F)F` (stereo not drawn) [Example 267, [5-Chloro-2-methoxy-4-(4-methylamino-5-trifluoromethyl-pyrimidin-2-ylamino)-phenyl]-(2,6-dimethyl-morpholin-4-yl)-methanone], the Ki rises from 4.2 nM to 8 nM (1.9-fold).
